Data from patent US20240425464A1, “Substituted Monohydrazides as Potent Antifungal Agents” (University of Kentucky Research Foundation, priority 2023, published 2024).
Converted amounts (≈) assume the structure as drawn. Read-outs that look alike come from different tables or passages of the source.

Experiments:
Test in all cases: MIC determination by in vitro antifungal assay
[1] = system: C. albicans ATCC MYA-2310 (E); type: cell-based, Candida albicans; settings: strain E = C. albicans ATCC MYA-2310
In short: (§1)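 Overnight YPD cultures of yeast were adjusted in RPMI 1640 to OD600 0.12 (˜1×10^6 CFU/mL) and diluted 1:100. The cells were added to serially double-diluted compound (0.06-31.3 μg/mL) in MOPS-buffered RPMI 1640 at pH 7.0. Plates were then incubated at 35° C for 48 h.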

[2] = system: C. albicans ATCC 64124 (B); type: cell-based, Candida albicans
In short: as §1

[3] = system: C. albicans ATCC MYA-2876 (C); type: cell-based, Candida albicans; settings: strain C = C. albicans ATCC MYA-2876(S)
In short: as §1

[4] = system: C. albicans ATCC 90819 (D); type: cell-based, Candida albicans
In short: as §1

[5] = system: C. albicans ATCC MYA-1237 (F); type: cell-based, Candida albicans; settings: strain F = C. albicans ATCC MYA-1237(R)
In short: as §1

[6] = system: C. albicans ATCC MYA-1003 (G); type: cell-based, Candida albicans; settings: strain G = C. albicans ATCC MYA-1063(R) (footnote), MYA-1003 in text
In short: as §1

[7] = system: Aspergillus terreus ATCC MYA-3633 (N); type: cell-based; settings: strain N = A. terreus ATCC MYA-3633
In short: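 CLSI M27-A3/M38-A2 microdilution, modified. Medium: RPMI 1640 + 0.165 M MOPS, pH 7.0. Compound range 0.06-31.3 μg/mL, double dilution. Incubation 48 h, 35° C. Yeast inoculum: OD600 0.12 (˜1×10^6 CFU/mL), then 1:100.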

[8] = Candida albicans, read-out: MIC
[9] = Candida albicans, ATCC64124, strain B = C. albicans ATCC 64124, read-out: MIC
[10] = Candida albicans, ATCC90819, strain D = C. albicans ATCC 90819(R), read-out: MIC
[11] = Aspergillus terreus, read-out: MIC
[12] = strain B = C. albicans ATCC 64124
[13] = strain D = C. albicans ATCC 90819(R)

Structure (SMILES) | MIC [1, 8] [µg/mL] | MIC [2, 9] [µg/mL] | MIC [3, 8] [µg/mL] | MIC [4, 10] [µg/mL] | MIC [5, 8] [µg/mL] | MIC [6, 8] [µg/mL] | MIC [7, 11] [µg/mL] | MIC [1] [μg/mL^−1] | MIC [2, 12] [μg/mL^−1] | MIC [3] [μg/mL^−1] | MIC [4, 13] [μg/mL^−1] | MIC [5] [μg/mL^−1] | MIC [6] [μg/mL^−1] | MIC [7] [μg/mL^−1]
O=C(NNc1ccc(F)cc1)c1cccc(F)n1 [Compound 5d] | 3.9 (≈ 15.6 µM) | 0.98 (≈ 3.93 µM) | 1.95 (≈ 7.82 µM) | 1.95 (≈ 7.82 µM) | 1.95 (≈ 7.82 µM) | 0.98 (≈ 3.93 µM) | 1.95 (≈ 7.82 µM) |  |  |  |  |  |  | 
O=C(NNc1ccc(Cl)cc1)c1cccc(F)n1 [Compound 5e] |  |  |  |  |  |  |  | 1.95 | 1.95 | 1.95 | 3.9 | 0.98 | 0.98 | 31.3
COc1ccc(NNC(=O)c2cccc(F)n2)cc1 [Compound 5f] | 0.98 (≈ 3.75 µM) | 1.95 (≈ 7.46 µM) | 0.98 (≈ 3.75 µM) | 1.95 (≈ 7.46 µM) | 0.98 (≈ 3.75 µM) | 0.98 (≈ 3.75 µM) | 15.6 (≈ 59.7 µM) |  |  |  |  |  |  | 
O=C(NNc1ccc(F)cc1F)c1cccc(F)n1 [Compound 5g] | 1.95 (≈ 7.3 µM) | 1.95 (≈ 7.3 µM) | 1.95 (≈ 7.3 µM) | 3.9 (≈ 14.6 µM) | 1.95 (≈ 7.3 µM) | 0.98 (≈ 3.67 µM) | 3.9 (≈ 14.6 µM) |  |  |  |  |  |  | 
O=C(NNc1cccc(F)c1)c1cccc(Br)n1 [Compound 6a] |  |  |  |  |  |  |  | 3.9 | 1.95 | 1.95 | 7.8 | 3.9 | 3.9 | 3.9
O=C(NNc1ccc(F)cc1)c1cccc(Br)n1 [Compound 6d] | 3.9 (≈ 12.6 µM) | 1.95 (≈ 6.29 µM) | 3.9 (≈ 12.6 µM) | 3.9 (≈ 12.6 µM) | 3.9 (≈ 12.6 µM) | 1.95 (≈ 6.29 µM) | 3.9 (≈ 12.6 µM) |  |  |  |  |  |  | 
COc1ccc(NNC(=O)c2cccc(Br)n2)cc1 [Compound 6f] | 3.9 (≈ 12.1 µM) | 3.9 (≈ 12.1 µM) | 1.95 (≈ 6.05 µM) | 3.9 (≈ 12.1 µM) | 0.98 (≈ 3.04 µM) | 3.9 (≈ 12.1 µM) | 7.8 (≈ 24.2 µM) |  |  |  |  |  |  | 
O=C(NNc1cccc(F)c1)c1ncc(F)cc1F [Compound 7a] |  |  |  |  |  |  |  | 1.95 | 0.98 | 1.95 | 3.9 | 3.9 | 1.95 | 3.9
COc1cccc(NNC(=O)c2ncc(F)cc2F)c1 [Compound 7c] | 3.9 (≈ 14 µM) | 1.95 (≈ 6.98 µM) | 3.9 (≈ 14 µM) | 7.8 (≈ 27.9 µM) | 3.9 (≈ 14 µM) | 1.95 (≈ 6.98 µM) | 31.3 (≈ 112 µM) |  |  |  |  |  |  | 
O=C(NNc1ccc(F)cc1)c1ncc(F)cc1F [Compound 7d] | 3.9 (≈ 14.6 µM) | 1.95 (≈ 7.3 µM) | 1.95 (≈ 7.3 µM) | 1.95 (≈ 7.3 µM) | 1.95 (≈ 7.3 µM) | 0.98 (≈ 3.67 µM) | 3.9 (≈ 14.6 µM) |  |  |  |  |  |  | 
O=C(NNc1ccc(Cl)cc1)c1ncc(F)cc1F [Compound 7e] |  |  |  |  |  |  |  | 1.95 | 3.9 | 3.9 | 7.8 | 0.49 | 1.95 | >31.3
COc1ccc(NNC(=O)c2ncc(F)cc2F)cc1 [Compound 7f] | 1.95 (≈ 6.98 µM) | 1.95 (≈ 6.98 µM) | 1.95 (≈ 6.98 µM) | 1.95 (≈ 6.98 µM) | 0.98 (≈ 3.51 µM) | 0.98 (≈ 3.51 µM) | 31.3 (≈ 112 µM) |  |  |  |  |  |  | 
O=C(NNc1ccc(F)cc1F)c1ncc(F)cc1F [Compound 7g] | 3.9 (≈ 13.7 µM) | 3.9 (≈ 13.7 µM) | 3.9 (≈ 13.7 µM) | 3.9 (≈ 13.7 µM) | 3.9 (≈ 13.7 µM) | 1.95 (≈ 6.84 µM) | 7.8 (≈ 27.3 µM) |  |  |  |  |  |  | 
O=C(NNc1cccc(F)c1)c1nc(F)ccc1F [Compound 8a] |  |  |  |  |  |  |  | 1.95 | 0.98 | 1.95 | 3.9 | 1.95 | 0.98 | 3.9
COc1cccc(NNC(=O)c2nc(F)ccc2F)c1 [Compound 8c] | 3.9 (≈ 14 µM) | 1.95 (≈ 6.98 µM) | 3.9 (≈ 14 µM) | 7.8 (≈ 27.9 µM) | 1.95 (≈ 6.98 µM) | 1.95 (≈ 6.98 µM) | 31.3 (≈ 112 µM) |  |  |  |  |  |  | 
